Data published in US7432275B2, “Carboxylic acid, phosphate or phosphonate substituted quinazolin-4-ylamine analogues as capsaicin receptor modulators” (Neurogen Corporation, priority 2002, dated 2008).

Molecular target: T1, human capsaicin receptor (Homo sapiens, UniProt Q8NER1)
Experiment: Capsaicin receptor binding assay ([3H]RTX competition, membranes of VR1-transfected HEK293 cells)
Conditions: not given
From the text: This Example illustrates the preparation of VR1-transfected cells and membrane preparations for use in binding assays (Example 5) and functional assays (Example 6).
This Example illustrates a representative assay of capsaicin receptor binding that may be used to determine the binding affinity of compounds for the capsaicin (VR1) receptor.
Binding studies with [^3H] […] 262:883-888.

T1 sequence (Q8NER1 whole entry): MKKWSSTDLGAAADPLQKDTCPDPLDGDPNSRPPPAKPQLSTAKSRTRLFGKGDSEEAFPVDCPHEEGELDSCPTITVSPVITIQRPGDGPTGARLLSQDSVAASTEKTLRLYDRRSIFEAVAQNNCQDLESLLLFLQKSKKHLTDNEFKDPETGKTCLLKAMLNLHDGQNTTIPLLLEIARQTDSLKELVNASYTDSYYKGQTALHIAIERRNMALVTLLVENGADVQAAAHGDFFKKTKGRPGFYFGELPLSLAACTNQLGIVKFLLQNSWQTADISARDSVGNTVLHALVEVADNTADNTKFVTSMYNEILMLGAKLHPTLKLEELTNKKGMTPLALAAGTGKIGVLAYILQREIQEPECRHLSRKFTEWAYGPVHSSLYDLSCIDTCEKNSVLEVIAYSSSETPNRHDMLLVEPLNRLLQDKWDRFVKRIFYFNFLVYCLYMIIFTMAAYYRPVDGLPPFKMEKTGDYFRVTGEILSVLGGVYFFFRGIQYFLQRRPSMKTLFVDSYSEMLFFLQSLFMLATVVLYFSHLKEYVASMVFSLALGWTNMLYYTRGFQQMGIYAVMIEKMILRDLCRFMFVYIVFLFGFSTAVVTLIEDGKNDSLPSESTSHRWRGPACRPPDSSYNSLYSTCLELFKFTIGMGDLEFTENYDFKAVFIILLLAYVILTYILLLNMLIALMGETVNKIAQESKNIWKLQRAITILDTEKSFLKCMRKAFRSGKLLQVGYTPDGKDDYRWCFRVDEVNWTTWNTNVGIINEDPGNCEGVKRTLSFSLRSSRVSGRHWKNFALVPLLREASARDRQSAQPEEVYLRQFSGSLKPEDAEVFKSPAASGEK

Row | Structure (SMILES) | Ki [µM]
1 | CCOP(=O)(Cc1nc(Nc2ccc(C(C)(C)C)cc2)c2ccc(-c3ncccc3C)cc2n1)OCC [Compound 16, [4-(4-tert-Butyl-phenylamino)-7-(3-methyl-pyridin-2-yl)-quinazolin-2-ylmethyl]-phosphonic acid diethylester] | < 1
2 | CCOP(=O)(Cc1nc(Nc2ccc(C(F)(F)F)cc2)c2ccc(-c3ncccc3C)cc2n1)OCC [Compound 5, [7-(3-Methyl-pyridin-2-yl)-4-(4-trifluoromethyl-phenylamino)-quinazolin-2-ylmethyl]-phosphonicacid diethyl ester] | < 1
3 | CCOP(=O)(Cc1nc(Nc2ccc(C(C)(C)C)cc2)c2ccc(-c3ncccc3C(F)(F)F)cc2n1)OCC [Compound 17, [4-(4-tert-Butyl-phenylamino)-7-(3-trifluoromethyl-pyridin-2-yl)-quinazolin-2-ylmethyl]-phosphonicacid diethyl ester] | < 1
4 | CCOP(=O)(O)Cc1nc(Nc2ccc(C(C)(C)C)cc2)c2ccc(-c3ncccc3C(F)(F)F)cc2n1 [Compound 18, [4-(4-tert-Butyl-phenylamino)-7-(3-trifluoromethyl-pyridin-2-yl)-quinazolin-2-ylmethyl]-phosphonicacid monoethyl ester] | < 1

Same assay, conditions: determined as described in Example 5; read-out: Ki

Row | Structure (SMILES) | Ki [µM]
5 | CC(C)(C)c1ccc(Nc2ncnc3cc(-c4ncccc4C(F)(F)F)cnc23)cc1OCC(=O)O [Compound 13, {2-tert-Butyl-5-[7-(3-trifluoromethyl-pyridin-2-yl)-pyrido[3,2-d]pyrimidin-4-ylamino]-phenoxy}-acetic acid] | < 1
6 | O=C(O)CNc1nc(Nc2ccc(C(F)(F)F)cc2)c2ccc(-c3ncccc3C(F)(F)F)cc2n1 [Compound 3, [4-(4-Trifluoromethyl-phenylamino)-7-(3-trifluoromethyl-pyridin-2-yl)-quinazolin-2-ylamino]-acetic acid] | < 1
7 | CC(C)(C)c1ccc(Nc2ncnc3cc(-c4ncccc4C(F)(F)F)ccc23)cc1OCCN1CCC[C@H]1C(=O)O [Compound 22, (S)-1-(2-{2-tert-Butyl-5-[7-(3-trifluoromethyl-pyridin-2-yl)-quinazolin-4-ylamino]-phenoxy}-ethyl)-pyrrolidine-2-carboxylic acid] | < 1
8 | COCc1nc2nc(-c3ncccc3C(F)(F)F)ccc2c(Nc2ccc(C(F)(F)F)cc2)c1C(=O)O [Compound 45, 2-Methoxymethyl-4-(4-trifluoromethyl-phenylamino)-7-(3-trifluoromethyl-pyridin-2-yl)-[1,8]naphthyridine-3-carboxylic acid] | < 1
9 | CC(C)(C)c1ccc(Nc2nc(N3CCC(C(=O)O)CC3)nc3nc(-c4ncccc4C(F)(F)F)ccc23)cc1 [Compound 44, 1-[4-(4-tert-Butyl-phenylamino)-7-(3-trifluoromethyl-pyridin-2-yl)-pyrido[2,3-d]pyrimidin-2-yl]-piperidine-4-carboxylic acid] | < 1
10 | CC(C)(C)c1ccc(Nc2nc(CP(=O)(O)O)nc3cc(-c4ncccc4C(F)(F)F)ccc23)cc1 [Compound 32, [4-(4-tert-Butyl-phenylamino)-7-(3-trifluoromethyl-pyridin-2-yl)-quinazolin-2-ylmethyl]-phosphonicacid] | < 1
11 | CC(C)(C)c1ccc(Nc2nc(COP(=O)(O)O)nc3cc(-c4ncccc4C(F)(F)F)ccc23)cc1 [Compound 7, Phosphoric acid mono-[4-(4-tert-butyl-phenylamino)-7-(3-trifluoromethyl-pyridin-2-yl)-quinazolin-2-ylmethyl] ester] | < 1
12 | O=P(OCc1ccccc1)(OCc1ccccc1)OCc1nc(Nc2ccc(C(F)(F)F)cc2)c2ccc(-c3ncccc3C(F)(F)F)cc2n1 [Compound 8, Phosphoric acid dibenzyl ester 4-(4-trifluoromethyl-phenylamino)-7-(3-trifluoromethyl-pyridin-2-yl)-quinazolin-2-ylmethyl ester] | < 1
13 | Cc1nc(Nc2ccc(C(C)(C)C(=O)O)cc2)c2ccc(-c3ncccc3C)nc2n1 [Compound 19, 2-Methyl-2-{4-[2-methyl-7-(3-methyl-pyridin-2-yl)-pyrido[2,3-d]pyrimidin-4-ylamino]-phenyl}-propionic acid] | < 1
14 | CC(C)(C)c1ccc(Nc2ncnc3cc(-c4ncccc4C(F)(F)F)ccc23)cc1OCCOP(=O)(O)O [Compound 31, Phosphoric acid mono-(2-{2-tert-butyl-5-[7-(3-trifluoromethyl-pyridin-2-yl)-quinazolin-4-ylamino]-phenoxy}-ethyl) ester] | < 1
15 | CC(C)(C)c1ccc(Nc2nc(COP(=O)(OCc3ccccc3)OCc3ccccc3)nc3cc(-c4ncccc4C(F)(F)F)ccc23)cc1 [Compound 6, Phosphoric acid dibenzyl ester 4-(4-tert-butyl-phenylamino)-7-(3-trifluoromethyl-pyridin-2-yl)-quinazolin-2-ylmethyl ester] | < 1

Molecular target: T1, human capsaicin receptor
Experiment: Calcium mobilization assay
Type: cell-based
Conditions: capsaicin used as positive control; read-out: approximate EC90 concentration
Protocol: Cells transfected with expression plasmids (as described in Example 4) and thereby expressing human capsaicin receptor are seeded and grown to 70-90% confluency in FALCON black-walled, clear-bottomed 96-well plates (#3904, BECTON-DICKINSON, Franklin Lakes, N.J.). […] After the incubation, the dye is emptied from the plates, and the cells are washed once with KRH buffer, and resuspended in KRH buffer.
To measure the ability of a test compound to agonize or antagonize a calcium mobilization response in cells expressing capsaicin receptors to capsaicin or other vanilloid agonist, the EC50 of the agonist capsaicin is first determined. An additional 20 μl of KRH buffer and 1 μl DMSO is added to each well of cells, prepared as described above. 100 μl capsaicin in KRH buffer is automatically transferred by the FLIPR instrument to each well. Capsaicin-induced calcium mobilization is monitored using either FLUOROSKAN ASCENT (Labsystems; Franklin, Mass.) or FLIPR (fluorometric imaging plate reader system; Molecular Devices, Sunnyvale, Calif.) instruments. […] In this equation, y is the maximum fluorescence signal, x is the concentration of the agonist or antagonist (in this case, capsaicin), a is the Emax, b corresponds to the EC50 value and c is the Hill coefficient. […]

Row | Structure (SMILES) | EC90 [µM]
16 | COc1cc(CNC(=O)CCCC/C=C/C(C)C)ccc1O [capsaicin] | ~0.1
